In series [1] the test system is fli1:EGFP zebrafish embryos. In words: fli1:EGFP zebrafish embryo angiogenesis assay (intersegmental vessel outgrowth and number). The format is in vivo. The conditions noted are these: for Anti-angiogenic activity (loss of ISVs or inhibition of ISV outgrowth): fli1:EGFP embryos, 24 h incubation, result in words. Here is the method:
To determine if our novel thalidomide analogs (Figure 1) had any effect on in vivo angiogenesis, we used fli1:EGFP embryos which express green fluorescent protein (GFP) on endothelial cells throughout development. Embryos were allowed to develop for 24 hours, then exposed to either vehicle or a compound of interest at the concentration range of 1 to 200 μg/mL. During this time the vasculature is rapidly expanding and developing new, naive intersegmental vessels (ISVs). The embryos were imaged after 24 hours of incubation with the drug (Figure 2A). […] We also observed that the potency of each compound varied.
Figure 2 The effect of novel thalidomide analogs on vessel length fli1:EGFP zebrafish were incubated with vehicle or compounds for 24 hours, at which point vessel outgrowth and number were measured. A. Images of zebrafish exposed to the vehicle or test compounds. […] Treatment with C4 (1.5 μg/mL), C18 (50 μg/mL), C81 (50 μg/mL), C82 (5 μg/mL), C83 (20 μg/mL) and C84 (50 μg/mL) show reduction in vessel out growth (white arrow) and in some cases loss of vessel (white asterisks). B. Stalk length & C. stalk number are reduced. Compounds are shown at the lowest concentration producing an effect. The data represent the mean + the standard error of the mean.
Zebrafish embryos were treated with analogs as previously described. Briefly, fli1:EGFP embryos were collected and embryos were allowed to develop for 24 hours. Embryos were dechorionated manually and exposed to test compounds or vehicle control (0.1% DMSO) for a further 24 hours. Embryos were anesthetized with 0.05% MS222 (Tricaine) (Sigma Aldrich) and live visualization of blood vessels was carried out.
(§1) A broad series of novel thalidomide-based compounds were chemically synthesized (WL, NHG and WDF, NIH), dissolved in DMSO, stored in stock concentrations between 10-100 mg/mL, and used at a final working DMSO concentration of 0.1%. The chemical structures of lead compounds of interest were confirmed by chemical characterization (purity >99.5%). Compounds were screened across a range of concentrations from 1-200 μg/mL to determine the lowest effective concentration.

The test system of series [2] is Tg(MPO::EGFP)^114 zebrafish. In words: Tg(MPO::EGFP)^114 zebrafish tail fin clip assay of neutrophil migration to the wound site. In kind it is in vivo. The conditions noted are these: for minimal effective concentration: Danio rerio, Neutrophil, fin clipped at 72 hpf, imaged at 24 h, screened 1-200 μg/mL, where no activity was seen the concentration shown is the lowest screened; for Effect on neutrophil migration to the wound site (anti-inflammatory activity): fin clipped 72 hpf embryos, result in words.
Description: To assess the immunomodulatory effects of the thalidomide analogs across the concentration range used in the previous assay, the transgenic zebrafish line Tg(MPO::EGFP)^114 was used. These embryos express GFP tagged myeloperoxidase, marking neutrophils during the inflammatory response, for example following injury. […] This allowed us to subsequently assess the anti-inflammatory activity of each compound by immersing embryos in the test drug or vehicle. The embryos were examined for migration of neutrophils to the wound site. In comparison to control embryos (Figure 3A) compounds with anti-inflammatory properties had reduction of at least 50% of neutrophils recruited to the wound site (Figure 3). […] We also screened the previously identified six anti-angiogenic compounds of interest in the Tg(MPO::EGFP)^114 line.
Figure 3 The effect of thalidomide analogs on the inflammatory response to wound healing A. Zebrafish (72 hpf) embryos transgenic for a fluorescently tagged neutrophil marker Tg(MPO::EGFP)^114 were fin clipped to induce an inflammatory response and exposed to vehicle or a test compound. Broken line indicates the tail fin with cut and area of the wound site. […] The data represent the mean + the standard error of the mean.
Tg(MPO::EGFP)^114 embryos were tail fin clipped as previously detailed and incubated with test compounds or vehicle control at 72 hpf. Fish were imaged at 24 hours and the number of migratory neutrophils present at the wound site were counted. Compounds inducing an at least 50% reduction of neutrophils to the wound site were considered to have anti-inflammatory properties in this system. All larvae were assessed for viability and morphological integrity. A minimum of 10 embryos were used per concentration per drug. Error bars represent standard error of the mean.
as §1

In a further series the test system is WT Zebrafish. In words: WT zebrafish embryo developmental defect (teratogenicity) screen. In kind it is in vivo. The conditions noted are these: for Eye development / eye diameter in zebrafish embryos / Pectoral fin development / fin length in zebrafish embryos: Figure 4, result in words; for Lowest effective concentration, WT Zebrafish assay: screened 1-200 μg/mL, where no activity was seen the concentration shown is the lowest screened.

The next series concerns chicken embryos. In words: In ovo chicken embryo teratogenicity assay. The note with it: for Lowest effective concentration, Chicken assay: HH stage 17-18 embryos, where no activity was seen the concentration shown is the lowest screened; for Defects in chicken embryo development (text and figure legend): applied at HH stage 17-18, result in words; for Damage observed: HH stage 17-18 chicken embryos, 100 μg/mL. In kind it is in vivo, white leghorn chicken. Here is the method: Compounds of interest were screened in chicken and/or zebrafish embryos (Figure 4), to determine if these compounds are teratogenic. The chicken embryo is well established as a model to determine the action of compounds upon development.
Fertilized white leghorn chicken embryos were incubated at 38°C and staged according to the Hamburger and Hamilton (HH) stages of development. Embryos were tested at HH stage 17-18 (day 2.5). Following membrane removal test compounds or vehicle control solutions were applied over the embryo. The eggs were sealed and the development of the embryos was monitored up to HH stage 30 (E9). A minimum of 3 embryos were used per concentration, per drug.

Series [3] has as its system TNF-α. Further details: method as in PMID 22642825, PMID 22277195. The note with it: cited from earlier work.
Series [4] relates to TNF-α. Details: method as in PMID 22642825, PMID 22277195. The note with it: rats challenged with systemic LPS; cited from earlier work.

“Also recorded” adds a separate entry of the source.

The minimal effective concentration is the lowest level tested that produced the effect sought. A higher minimal effective concentration goes with weaker potency.

For `O=C1NC(=S)CCC1N1C(=O)c2ccccc2C1=S` (centres unmarked) [Compound C2, 2,3-dihydro-2-(2-oxo-6-thioxo-3-piperidinyl)-3-thioxo-1H-isoindol-1-one], the minimal effective concentration in series [1] (Danio rerio, 24 h, 24 hpf embryos exposed 24 h, screened 1-200 μg/mL, where no activity was seen the concentration shown is the lowest screened) is 10 µg/mL. Also, in series [1], the “Anti-angiogenic activity (loss of ISVs or inhibition of ISV outgrowth)” value is recorded as “without anti-angiogenic activities”. In series [2], the minimal effective concentration was found to be 10 µg/mL and the “Effect on neutrophil migration to the wound site (anti-inflammatory activity)” value is recorded as “reduced neutrophil migration; also recorded: significant anti-inflammatory action”. Moreover, in the series with WT Zebrafish, the “Eye development / eye diameter in zebrafish embryos” value (“Eye development / eye diameter” below) is given as “normal eye development”; the “Pectoral fin development / fin length in zebrafish embryos” value is reported as “normal”; the “Lowest effective concentration, WT Zebrafish assay” value amounted to 10 µg/mL. Further, in the series with chicken embryos, the “Lowest effective concentration, Chicken assay” value stood at 100 µg/mL; the “Defects in chicken embryo development (text and figure legend)” value (from here on “Defects in chicken embryo development”) was “no effect”. Moreover, in the series on chicken embryos (chicken and zebrafish embryo assays together, result in words), the “Teratogenicity in these assays” value is on record as “non-teratogenic”. Further, the “Effect on LPS-induced elevations in TNF-α, cultured RAW 264.7 cells” value in the series with TNF-α [3] is reported as “potently lower lipopolysaccharide (LPS)-induced elevations in TNF-α”. Moreover, the “Effect on LPS-induced elevations in TNF-α, plasma and brain of rats” value in the series with TNF-α [4] was “potently lower lipopolysaccharide (LPS)-induced elevations in TNF-α”.
Take `O=C1c2cccc([N+](=O)[O-])c2CN1C1C2CC3CC(C2)CC1C3` (centres unmarked) [Compound C82]: the “Anti-angiogenic activity (loss of ISVs or inhibition of ISV outgrowth)” value in series [1] was “anti-angiogenic activity”. Moreover, in series [2], the minimal effective concentration was 5 µg/mL and the “Effect on neutrophil migration to the wound site (anti-inflammatory activity)” value was “significantly reduce neutrophil migration”. In the series with WT Zebrafish, the “Eye development / eye diameter” value is listed as “reductions in eye diameter”; the “Pectoral fin development / fin length in zebrafish embryos” value is listed as “reductions”; the “Lowest effective concentration, WT Zebrafish assay” value came to 5 µg/mL. Further, in the series with chicken embryos, the Damage observed entry was “Limb reduction defect”; the “Lowest effective concentration, Chicken assay” value stood at 100 µg/mL; the “Defects in chicken embryo development” value is “limb and digit defects”.
`Nc1cccc2c1CN(C1C3CC4CC(C3)CC1C4)C2=O` (centres unmarked) [Compound C83]: in series [1], the “Anti-angiogenic activity (loss of ISVs or inhibition of ISV outgrowth)” value is on record as “anti-angiogenic activity”. For the same molecule, the minimal effective concentration in series [2] turned out to be 20 µg/mL. Also, in the series with WT Zebrafish, the “Eye development / eye diameter” value is on record as “reductions in eye diameter” and the “Lowest effective concentration, WT Zebrafish assay” value amounted to 10 µg/mL. In the series with chicken embryos, the Damage observed entry is recorded as “Necrotic YSM, hemorrhaging”; the “Lowest effective concentration, Chicken assay” value turned out to be 100 µg/mL; the “Defects in chicken embryo development” value is “hemorrhaging; also recorded: abnormal blood vessels and necrotic-like regions in the surrounding yolk sac membrane”.
Consider `O=C1c2cccc([N+](=O)[O-])c2CN1C12CC3CC(CC(C3)C1)C2` [Compound C84], for which the “Anti-angiogenic activity (loss of ISVs or inhibition of ISV outgrowth)” value in series [1] is listed as “anti-angiogenic activity”. In series [2], this molecule yielded a minimal effective concentration of 10 µg/mL. Moreover, in the series with WT Zebrafish, the “Eye development / eye diameter” value is “reductions in eye diameter” and the “Lowest effective concentration, WT Zebrafish assay” value is 10 µg/mL. In the series with chicken embryos, the Damage observed entry is “Hemorrhaging”; the “Lowest effective concentration, Chicken assay” value was found to be 100 µg/mL; the “Defects in chicken embryo development” value is reported as “hemorrhaging”.

These data come from publication PMC5078090, “In vivo screening and discovery of novel candidate thalidomide analogs in the zebrafish embryo and chicken embryo model systems” (Oncotarget, 2016).
